Measurements from US12049646B2, “SC-beta cells and compositions and methods for generating the same” (President and Fellows of Harvard College, priority 2013, dated 2024).

How the values were obtained:
Format in all cases: cell-based, human
SC-β cells [1] = assay: Insulin secretion of plated SC-β cells treated with anti-diabetic drugs in 2 and 20 mM glucose; conditions: drug-treated versus control
From the text: The inventors first tested whether SC-β cells could respond to existing anti-diabetic drugs from several different classes (FIG. 16B). LY2608204 is glucokinase activator in clinical trials while liraglutide, tolbutamide, and nateglinide are examples of GLP-1 agonists and secretagogues (sulfonylureas and meglitinides), respectively, that have been used clinically (Matschinsky, 2009; Modi, 2007; Vetere et al., 2014).

hPSC derived cells = assay: Protocol modifications at Steps 3-6: cell survival and marker-positive populations; conditions: for cell survival: treatment during Steps 3-5 of differentiation
From the text: One challenge for the stem cell field has been generating a sufficient quantity of SC-β cells that can be useful for drug screening, disease modeling, or therapeutic use. For example, hES cells are technically difficult to culture, are vulnerable to apoptosis upon cellular detachment and dissociation, undergo massive cell death particularly after complete dissociation, and have low cloning efficiency. (Watanabe, K. et al., Nature Biotechnology 25, 681-686 (2007)). As a result, the quantity of viable SC-β cells yielded may be low. By modify the protocol between Steps 3 and 6 in the manner shown in FIG. 15A, more pure NKX6.1+ endocrine clusters can be generated (FIG. 15B) leading to more SC-β cells that can be therapeutically useful.
In Steps 3-5, for instance, cell survival can be improved by adding a rho-associated protein kinase inhibitor, or a Rock inhibitor. It is believed that the addition of a Rock inhibitor enhances survival of ES cells by preventing dissociation-induced apoptosis thus increasing their cloning efficiency. (Watanabe et al.) Examples of Rock inhibitors include, but are not limited to, Y-27632, Fasudil/HA1077, and H-1152.
In addition to treating the cells with a Rocki inhibitor, the cells in Steps 3-4 can be treated with ActivinA alone or in combination with Nicotinamide. […] Since SOX2 and NKX6-1 are mutually exclusive (FIG. 15E), down-regulation of SOX2 results in the up-regulation of NKX6-1, a marker for a mature pancreatic β cell.
In Steps 5-6, cell survival can further be enhanced by treating cells with staurosporine. Staurosporine is known to be an activator of neuronal, glial, and stem cell-like neurosphere differentiation and is also thought to induce apoptosis. (Schumacher, et al., Mol. Cell. Neurosci. 2003; 23(4): 669-680).
Finally, cell survival can further be enhanced by treating cells with a culture medium containing Alk5i, T3 in combination with XXI, a γ-secretase inhibitor that improves β cell maturation.
Cells were dispersed into single-cell suspension by incubation in TrypLE Express at 37° C. for 10-30 min in a 15 ml falcon tube. Starting at stage 5, clusters take longer to dissociate into single cells. Clusters should be incubated with TrypLE Express until they dissociate to single cells upon mixing by pipetting gently up and down with a P1000. The TrypLE Express was quenched with 3-4 times media and cells were spun down for 5 min at 1000 rpm. Cells were washed twice in PBS and transferred to a 1.7 ml Safe seal microcentrifuge tube (Bioscience Inc.; 11510). Make sure having 1-10 mio cells/tube and use 0.5-1 ml volumes in the following. Cells were resuspended in 4% paraformaldehyde (PFA) (Electron Microscopy Science Nm; 15710) and incubated on ice for 30 min. Cells were then washed 3 times in PBS followed by incubation in blocking buffer (PBS+0.1% TritonX100 (VWR; EM-9400)+5% donkey serum (Jackson Immunoresearch; 017-000-121)) on ice for 1 hour. After fixation cells are more resistant to centrifugation, so after fixation all centrifugations were done at 3000 g for 3 min. Cells were then resuspended in blocking buffer with primary antibodies and incubated at 4° C. overnight. […]

SC-β cells [2] = assay: GSIS of SC-β cells after adding factors to the CMRL media at the last differentiation step (Stage 6); conditions: factor added to CMRL media containing Alk5 inhibitor and T3 hormone, versus CMRL only, CMRL+Alk5 inhibitor+T3 or S3+Alk5 inhibitor+T3; for stimulation index (ratio of insulin secreted in high glucose to low glucose): 15 mM vs 2.5 mM glucose
From the text: To induce the in vitro maturation of at least some of the Pdx1-positive, NKX6-1-positive, insulin-positive endocrine cells into SC-β cells, the Pdx1-positive, NKX6-1-positive, insulin-positive endocrine cells are maintained in a suitable culture medium for a sufficient period of time. […] Adding additional factors to the CMRL media at the last step of differentiation (Stage 6) (FIG. 14A), however, was also found to generate a better glucose stimulated insulin secretion (GSIS) response by SC-β cells as measured by either stimulation index between high and low glucose challenges or by the amount of insulin released. Such additional factors may include, but are not limited to, Sant1, XXI, and SSP. The stimulation index, as calculated by the ratio of insulin secreted in high glucose (15 mM) to low glucose (2.5 mM), was greater for the SC-β cells maintained in a CMRL media containing Alk5 inhibitor, T3 hormone and either Sant1, XXI or SSP than those SC-β cells maintained in only CMRL media, CMRL media containing Alk5 inhibitor and T3 hormone, or S3 media containing Alk5 inhibitor and T3 hormone (FIG. 14B). Furthermore, the amount of insulin secreted was greater for the SC-β cells maintained in a CMRL media containing Alk5 inhibitor, T3 hormone and either Sant1, XXI or SSP than those SC-β cells maintained in only CMRL media, CMRL media containing Alk5 inhibitor and T3 hormone, or S3 media containing Alk5 inhibitor and T3 hormone (FIG. 14C).
Alternatively, Days 21-35: CMRLS+10 μM Alk5i II+1 μM T3+Sant1.
Alternatively, Days 21-35: CMRLS+10 μM Alk5i II+1 μM T3+XXI.
Alternatively, Days 21-35: CMRLS+10 μM Alk5i II+1 μM T3+SSP.

O=C(Nc1ncc(SCCN2CCCC2)s1)[C@]1(c2ccc(S(=O)(=O)C3CC3)cc2)C[C@H]1C1CCCCC1 [LY2608204]
insulin secretion of SC-β cells following a glucose challenge (SC-β cells [1]): trend toward responding to treatment with these drugs by increasing insulin secretion

NC(=O)c1cccnc1 [Nicotinamide]
cell survival (hPSC derived cells): improve cell survival

Cc1nn(-c2ccccc2)c(C)c1/C=N/N1CCN(Cc2ccccc2)CC1 [Sant1]
stimulation index (ratio of insulin secreted in high glucose to low glucose) (SC-β cells [2]): greater | amount of insulin secreted (SC-β cells [2]): greater

C[C@H](NC(=O)Cc1cc(F)cc(F)c1)C(=O)N[C@H]1N=C(c2ccccc2)c2ccccc2N(C)C1=O [XXI]
NeuroD1+ population (hPSC derived cells; added to medium with Alk5i and T3 at Steps 5 and 6, versus Alk5i and T3 only): increase the NeuroD1+ population | stimulation index (ratio of insulin secreted in high glucose to low glucose) (SC-β cells [2]): greater | amount of insulin secreted (SC-β cells [2]): greater

CC(C)[C@H]1CC[C@H](C(=O)N[C@H](Cc2ccccc2)C(=O)O)CC1 [nateglinide]
insulin secretion of SC-β cells following a glucose challenge (SC-β cells [1]): trend toward responding to treatment with these drugs by increasing insulin secretion

CN[C@@H]1C[C@H]2O[C@@](C)([C@@H]1OC)n1c3ccccc3c3c4c(c5c6ccccc6n2c5c31)C(=O)NC4 [staurosporine]
percentage of Chromogranin A (pancreatic endocrine cell marker) (hPSC derived cells; treatment in Steps 5-6): increasing the percentage of Chromogranin A | percentage of NKX6-1/C-peptide+ cells (hPSC derived cells; treatment in Steps 5-6): increasing the percentage of NKX6-1.C-peptide+ cells

CCCCNC(=O)NS(=O)(=O)c1ccc(C)cc1 [tolbutamide]
insulin secretion of SC-β cells following a glucose challenge (SC-β cells [1]): trend toward responding to treatment with these drugs by increasing insulin secretion

B1: Activin A: growth factor from the TGF-β superfamily (protein, UniProt P08476 311-426, looked up)
Inhibin beta A chain: GLECDGKVNICCKKQFFVSFKDIGWNDWIIAPSGYHANYCEGECPSHIAGTSGSSLSFHSTVINHYRMRGHSPFANLKSCCVPTKLRPMSMLYYDDGQNIIKKDIQNMIVEECGCS
modifications: Inhibin beta A chain
notes: growth factor from the TGF-β superfamily
cell survival (hPSC derived cells): improve cell survival
